Source: US20250074920A1, “MACROCYCLIC COMPOUNDS AND USE AS KINASE INHIBITORS” (BLOSSOMHILL THERAPEUTICS, INC., priority 2022, published 2025)

How the values were obtained:
Assay in all cases: KINOMEscan kinase binding assay
[1] = tested on: ABL1(Q252H)-nonphosphorylated; conditions: at 1 μM
Description: (§1) Kinase binding assays were performed at Eurofins/DiscoveRx using the general KINOMEscan Protocol (Fabian, M. A. et al., “A small molecule-kinase interaction map for clinical kinase inhibitors,” Nat. Biotechnol. 2005, 23(3):329-36). For most assays, kinase-tagged T7 phage strains were prepared in an E. coli host derived from the BL21 strain. E. coli were grown to log-phase and infected with T7 phage and incubated with shaking at 32° C. until lysis. The lysates were centrifuged and filtered to remove cell debris. The remaining kinases were produced in HEK-293 cells and subsequently tagged with DNA for qPCR detection. Streptavidin-coated magnetic beads were treated with biotinylated small molecule ligands for 30 minutes at room temperature to generate affinity resins for kinase assays. The liganded beads were blocked with excess biotin and washed with blocking buffer (SeaBlock (Pierce), 1% BSA, 0.05% Tween 20, 1 mM DTT) to remove unbound ligand and to reduce nonspecific binding. Binding reactions were assembled by combining kinases, liganded affinity beads, and test compounds in 1× binding buffer (20% SeaBlock, 0.17×PBS, 0.05% Tween 20, 6 mM DTT). All reactions were performed in polystyrene 96-well plates in a final volume of 0.135 mL. The assay plates were incubated at room temperature with shaking for 1 hour and the affinity beads were washed with wash buffer (1×PBS, 0.05% Tween 20). The beads were then re-suspended in elution buffer (1×PBS, 0.05% Tween 20, 0.5 μM non-biotinylated affinity ligand) and incubated at room temperature with shaking for 30 minutes. The kinase concentration in the eluates was measured by qPCR. Results for compounds tested in this assay at a given concentration are reported as “% Ctrl”, where lower numbers indicate stronger binding in the matrix. % Ctrl was calculated as (test compound signal-positive control signal)/(negative control signal-positive control signal)×100. Dissociation constants (Kds) for test compound-kinase interactions were calculated by measuring the amount of kinase captured on the solid support as a function of the test compound concentration.

[2] = tested on: ABL1(T315I)-nonphosphorylated; conditions: at 1 μM
Description: as §1

ABL2 = conditions: at 1 μM
Description: as §1

ALK(C1156Y) = conditions: at 1 μM
Description: as §1

ALK(L1196M) = conditions: at 1 μM
Description: as §1

BLK = conditions: at 1 μM
Description: as §1

BRK = conditions: at 1 μM
Description: as §1

CSF1R = conditions: at 1 μM
Description: as §1

EGFR(G719C) = conditions: at 1 μM
Description: as §1

EGFR(L858R, T790M) = conditions: at 1 μM
Description: as §1

EGFR(L861Q) = conditions: at 1 μM
Description: as §1

EPHA3 = conditions: at 1 μM
Description: as §1

EPHA4 = conditions: at 1 μM
Description: as §1

EPHA8 = conditions: at 1 μM
Description: as §1

EPHB2 = conditions: at 1 μM
Description: as §1

ERBB3 = conditions: at 1 μM
Description: as §1

FAK = conditions: at 1 μM
Description: as §1

FGFR2 = conditions: at 1 μM
Description: as §1

FGFR3(G697C) = conditions: at 1 μM
Description: as §1

FLT3(N841I) = conditions: at 1 μM
Description: as §1

FLT3-autoinhibited = conditions: at 1 μM
Description: as §1

FRK = conditions: at 1 μM
Description: as §1

FYN = conditions: at 1 μM
Description: as §1

HCK = conditions: at 1 μM
Description: as §1

INSRR = conditions: at 1 μM
Description: as §1

INSR = conditions: at 1 μM
Description: as §1

[3] = tested on: JAK3(JH1domain-catalytic); conditions: for % Ctrl: JAK3(JH1domain-catalytic), at 1 μM; for Kd: read-out: JAK3(JH1 domain-catalytic) Kd
Description: as §1

KIT(L576P) = conditions: at 1 μM
Description: as §1

KIT-autoinhibited = conditions: at 1 μM
Description: as §1

LTK = conditions: at 1 μM
Description: as §1

LYN = conditions: at 1 μM
Description: as §1

MET = conditions: at 1 μM
Description: as §1

MST1R = conditions: at 1 μM
Description: as §1

PYK2 = conditions: at 1 μM
Description: as §1

RET(V804L) = conditions: at 1 μM
Description: as §1

RET(V804M) = conditions: at 1 μM
Description: as §1

ROS1 = conditions: at 1 μM
Description: as §1

TEC = conditions: at 1 μM
Description: as §1

TRKA = conditions: at 1 μM
Description: as §1

TXK = conditions: at 1 μM
Description: as §1

[4] = tested on: TYK2(JH1domain-catalytic); conditions: for % Ctrl: TYK2(JH1domain-catalytic), at 1 μM; for Kd: read-out: TYK2(JH1 domain-catalytic) Kd
Description: as §1

Cc1cc2c([nH]1)/C=C1\C(=O)Nc3ccc(cc31)-c1c(nn(C)c1C)OCCCN(C)C2=O [Cpd. 1, [3a(4)Z]-6,9,15,16-tetramethyl-9,10,11,12-tetrahydro-15H-1,17-(ethanediylidene)pyrazolo[4,3-n]dipyrrolo[3,2-g:3′,4′-j][1,5]oxazacyclopentadecine-3,8(2H,5H)-dione]
% Ctrl [1]: 87% | % Ctrl [2]: 83% | % Ctrl (ABL2): 87% | % Ctrl (ALK(C1156Y)): 100% | % Ctrl (ALK(L1196M)): 89% | % Ctrl (BLK): 87% | % Ctrl (BRK): 92% | % Ctrl (CSF1R): 98% | % Ctrl (EGFR(G719C)): 81% | % Ctrl (EGFR(L858R, T790M)): 89% | % Ctrl (EGFR(L861Q)): 82% | % Ctrl (EPHA3): 86% | % Ctrl (EPHA4): 96% | % Ctrl (EPHA8): 100% | % Ctrl (EPHB2): 97% | % Ctrl (ERBB3): 100% | % Ctrl (FAK): 85% | % Ctrl (FGFR2): 96% | % Ctrl (FGFR3(G697C)): 100% | % Ctrl (FLT3(N841I)): 97% | % Ctrl (FLT3-autoinhibited): 92% | % Ctrl (FRK): 93% | % Ctrl (FYN): 91% | % Ctrl (HCK): 93% | % Ctrl (INSRR): 94% | % Ctrl (INSR): 95% | % Ctrl [3]: 81% | Kd [3]: > 10 µM | % Ctrl (KIT(L576P)): 88% | % Ctrl (KIT-autoinhibited): 81% | % Ctrl (LTK): 74% | % Ctrl (LYN): 100% | % Ctrl (MET): 84% | % Ctrl (MST1R): 100% | % Ctrl (PYK2): 100% | % Ctrl (RET(V804L)): 82% | % Ctrl (RET(V804M)): 100% | % Ctrl (ROS1): 91% | % Ctrl (TEC): 91% | % Ctrl (TRKA): 67% | % Ctrl (TXK): 100% | % Ctrl [4]: 31% | Kd [4]: > 10 µM

Cc1cc2c([nH]1)/C=C1\C(=O)Nc3ccc(cc31)-c1c(nn(C)c1C)COCCN(C)C2=O [Cpd. 2, [3a(4)Z]-6,9,15,16-tetramethyl-10,11,13,15-tetrahydro-2H-1,17-(ethanediylidene)pyrazolo[4,3-m]dipyrrolo[3,2-f:3′,4′-i][1,4]oxazacyclopentadecine-3,8(5H,9H)-dione]
% Ctrl [1]: 57% | % Ctrl [2]: 17% | % Ctrl (ABL2): 96% | % Ctrl (ALK(C1156Y)): 93% | % Ctrl (ALK(L1196M)): 94% | % Ctrl (BLK): 98% | % Ctrl (BRK): 100% | % Ctrl (CSF1R): 82% | % Ctrl (EGFR(G719C)): 80% | % Ctrl (EGFR(L858R, T790M)): 62% | % Ctrl (EGFR(L861Q)): 62% | % Ctrl (EPHA3): 99% | % Ctrl (EPHA4): 100% | % Ctrl (EPHA8): 92% | % Ctrl (EPHB2): 97% | % Ctrl (ERBB3): 100% | % Ctrl (FAK): 96% | % Ctrl (FGFR2): 85% | % Ctrl (FGFR3(G697C)): 93% | % Ctrl (FLT3(N841I)): 24% | % Ctrl (FLT3-autoinhibited): 83% | % Ctrl (FRK): 98% | % Ctrl (FYN): 100% | % Ctrl (HCK): 100% | % Ctrl (INSRR): 100% | % Ctrl (INSR): 100% | % Ctrl [3]: 49% | Kd [3]: 0.51 µM | % Ctrl (KIT(L576P)): 100% | % Ctrl (KIT-autoinhibited): 100% | % Ctrl (LTK): 100% | % Ctrl (LYN): 74% | % Ctrl (MET): 95% | % Ctrl (MST1R): 100% | % Ctrl (PYK2): 100% | % Ctrl (RET(V804L)): 80% | % Ctrl (RET(V804M)): 77% | % Ctrl (ROS1): 97% | % Ctrl (TEC): 83% | % Ctrl (TRKA): 20% | % Ctrl (TXK): 100% | % Ctrl [4]: 100% | Kd [4]: > 10 µM
